Results from US20230265151A1, “GIP/GLP1 CO-AGONIST COMPOUNDS” (priority 2020, published 2023).
Read-outs that look alike come from different tables or passages of the source.

Legend:
[1] = target: T1, human GLP-1 receptor (hGLP-1R) (Homo sapiens, UniProt P43220); assay: [125I]-GLP-1 binding, SPA with membranes of HEK293 cells expressing hGLP-1R
T1 construct: expressed in transfected cells; crude membranes

hGIPR = target: T2, hGIPR (Homo sapiens, UniProt P48546); assay: Functional cAMP formation (HTRF) in HEK-293 clonal cells expressing hGIPR, 0.1% bovine casein, without or with 1.0% human serum albumin; type: cell-based; settings: for Emax: percent of maximal response to GIP(1-42)NH2; for EC50: cAMP
T2 construct: expressed in transfected cells
T2 sequence (P48546 22-466): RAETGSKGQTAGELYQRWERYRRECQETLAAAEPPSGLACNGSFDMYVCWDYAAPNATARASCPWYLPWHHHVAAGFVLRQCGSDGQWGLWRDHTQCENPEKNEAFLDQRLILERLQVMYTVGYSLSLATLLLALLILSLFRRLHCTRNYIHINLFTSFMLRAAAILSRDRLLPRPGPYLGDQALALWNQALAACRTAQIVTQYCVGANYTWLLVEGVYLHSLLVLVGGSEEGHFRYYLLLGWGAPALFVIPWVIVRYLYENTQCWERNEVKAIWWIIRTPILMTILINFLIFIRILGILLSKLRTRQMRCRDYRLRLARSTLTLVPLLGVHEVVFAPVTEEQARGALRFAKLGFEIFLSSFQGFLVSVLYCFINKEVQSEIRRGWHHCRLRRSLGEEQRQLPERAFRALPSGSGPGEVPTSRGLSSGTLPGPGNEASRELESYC
Summary of the method: (§1)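 Cells were stimulated with peptide for 30 min at 37° C, then lysed in buffer carrying cAMP-d2 and anti-cAMP Eu3+-cryptate for a competitive HTRF read after at least 60 min at room temperature. The 665/620 nm ratio was converted to nM cAMP against a standard curve.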

hGLP-1R = hGLP-1R (Homo sapiens, UniProt P43220); assay: Functional cAMP formation (HTRF) in HEK-293 clonal cells expressing hGLP-1R, 0.1% bovine casein, without or with 1.0% human serum albumin; type: cell-based; design: expressed in transfected cells; settings: for Emax: percent of maximal response to GLP-1(7-36)NH2, arithmetic mean; for EC50: cAMP
hGLP-1R, sequence (P43220 24-463): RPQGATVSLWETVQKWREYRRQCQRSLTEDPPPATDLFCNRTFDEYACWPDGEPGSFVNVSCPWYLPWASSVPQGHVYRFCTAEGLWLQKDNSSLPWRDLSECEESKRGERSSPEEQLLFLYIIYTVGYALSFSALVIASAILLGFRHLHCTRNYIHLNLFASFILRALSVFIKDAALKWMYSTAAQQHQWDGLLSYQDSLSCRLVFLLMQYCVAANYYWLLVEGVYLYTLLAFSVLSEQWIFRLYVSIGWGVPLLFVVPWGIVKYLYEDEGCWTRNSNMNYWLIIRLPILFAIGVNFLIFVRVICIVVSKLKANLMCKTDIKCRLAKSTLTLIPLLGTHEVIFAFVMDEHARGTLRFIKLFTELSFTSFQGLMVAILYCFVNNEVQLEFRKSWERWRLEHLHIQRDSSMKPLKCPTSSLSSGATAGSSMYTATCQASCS
Summary of the method: as §1

[2] = target: T3, human GIP receptor (hGIPR) (Homo sapiens, UniProt P48546); assay: [125I]-GIP binding, SPA with membranes of CHO cells expressing hGIPR
T3 construct: expressed in transfected cells; crude membranes
T3 sequence (P48546 22-466): T2 sequence (P48546 22-466)

hGCGR = target: T4, hGCGR (Homo sapiens, UniProt P47871); assay: Functional cAMP formation (HTRF) in HEK-293 clonal cells expressing hGCGR, 0.1% bovine casein, without or with 1.0% human serum albumin; type: cell-based; settings: cAMP, 37° C.
T4 construct: expressed in transfected cells
T4 sequence (P47871 26-477): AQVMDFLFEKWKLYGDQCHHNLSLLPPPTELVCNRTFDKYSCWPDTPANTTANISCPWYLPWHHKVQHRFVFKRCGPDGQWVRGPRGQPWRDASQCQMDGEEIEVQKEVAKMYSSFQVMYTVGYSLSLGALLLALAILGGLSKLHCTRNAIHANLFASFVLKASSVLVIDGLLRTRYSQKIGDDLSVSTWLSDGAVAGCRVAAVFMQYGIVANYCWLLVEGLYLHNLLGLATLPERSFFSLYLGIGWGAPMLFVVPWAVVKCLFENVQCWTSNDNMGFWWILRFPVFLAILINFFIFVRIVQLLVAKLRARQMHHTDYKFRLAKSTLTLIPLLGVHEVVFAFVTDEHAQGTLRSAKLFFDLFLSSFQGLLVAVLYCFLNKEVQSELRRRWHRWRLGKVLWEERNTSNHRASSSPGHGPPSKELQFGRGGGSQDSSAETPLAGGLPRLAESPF
Summary of the method: as §1

[3] = hGIPR EC50, nM (SEM, n), 37° C., 0.1% bovine casein (no human serum albumin), geometric mean
[4] = HEK293, read-out: hGLP-1R Emax, % ± SEM, cAMP, 37° C., 0.1% bovine casein
[5] = hGLP-1R EC50, nM (SEM, n), 37° C., 0.1% bovine casein (no human serum albumin), geometric mean
[6] = hGCGR EC50, nM (SEM, n), 0.1% bovine casein (no human serum albumin), geometric mean
[7] = hGCGR EC50, nM (SEM, n), 0.1% bovine casein and 1.0% human serum albumin, geometric mean (SEM, n)

T1 sequence (P43220 24-463): as the sequence (P43220 24-463) above

## CC[C@H](C)[C@H](NC(=O)[C@H](CC(C)C)NC(=O)[C@](C)(Cc1ccc(O)cc1)NC(=O)[C@H](CCCCNC(=O)COCCOCCNC(=O)CCCCCNC(=O)CC[C@H](NC(=O)CCCCCCCCCOc1ccc(C(=O)O)cc1)C(=O)O)NC(=O)[C@@H](NC(=O)[C@H](Cc1ccccc1)NC(=O)[C@H](CCCN)NC(=O)C(C)(C)NC(=O)[C@H](CCC(N)=O)NC(=O)[C@H](C)NC(=O)[C@H](CCC(N)=O)NC(=O)[C@H](CCCN)NC(=O)[C@H](CC(=O)O)NC(=O)[C@H](CC(C)C)NC(=O)[C@](C)(CC(C)C)NC(=O)[C@@H](NC(=O)C(C)(C)NC(=O)[C@H](Cc1ccncc1)NC(=O)[C@H](CC(=O)O)NC(=O)[C@H](CO)NC(=O)[C@@H](NC(=O)[C@](C)(Cc1ccccc1F)NC(=O)[C@@H](NC(=O)CNC(=O)[C@H](CCC(=O)O)NC(=O)C(C)(C)NC(=O)[C@@H](N)Cc1ccc(O)cc1)[C@@H](C)O)[C@@H](C)O)[C@@H](C)CC)[C@@H](C)CC)C(=O)N[C@@H](CCCCNC(=O)COCCOCCNC(=O)CCCCCNC(=O)CC[C@H](NC(=O)CCCCCCCCCOc1ccc(C(=O)O)cc1)C(=O)O)C(=O)NCC(=O)NCC(=O)N1CCC[C@H]1C(=O)N[C@@H](CO)C(=O)N[C@@H](CO)C(=O)NCC(=O)N[C@@H](C)C(=O)N1CCC[C@H]1C(=O)N1CCC[C@H]1C(=O)N1CCC[C@H]1C(=O)N[C@@H](CO)C(N)=O [Example 453]
[1]
  Ki: 0.123 nM
hGIPR; HEK293, read-out: hGIPR Emax, % ± SEM, cAMP, 37° C., 0.1% bovine casein and 1.0% human serum albumin
  Emax: 92%
hGIPR; [3]
  EC50: 0.0139 nM
hGLP-1R; [4]
  Emax: 116%
hGLP-1R; [5]
  EC50: 0.2 nM
hGLP-1R; hGLP-1R EC50, nM (SEM, n), 37° C., 0.1% bovine casein and 1.0% human serum albumin, geometric mean (SEM, n)
  EC50: 5.47 nM
[2]
  Ki: 0.013 nM
hGCGR; [6]
  EC50: > 9950 nM
hGCGR; [7]
  EC50: > 9950 nM

## CC[C@H](C)[C@H](NC(=O)[C@H](CC(C)C)NC(=O)[C@](C)(Cc1ccc(O)cc1)NC(=O)[C@H](CCCCNC(=O)CCOCCOCCOCCNC(=O)CC[C@H](NC(=O)CCCCCCCCCCCCC(=O)O)C(=O)O)NC(=O)[C@@H](NC(=O)[C@H](Cc1ccccc1)NC(=O)[C@H](CCCN)NC(=O)C(C)(C)NC(=O)[C@H](CCC(N)=O)NC(=O)[C@H](C)NC(=O)[C@H](CCC(N)=O)NC(=O)[C@H](CCCN)NC(=O)[C@H](CC(=O)O)NC(=O)[C@H](CC(C)C)NC(=O)[C@](C)(CC(C)C)NC(=O)[C@@H](NC(=O)C(C)(C)NC(=O)[C@H](Cc1ccncc1)NC(=O)[C@H](CC(=O)O)NC(=O)[C@H](CO)NC(=O)[C@@H](NC(=O)[C@](C)(Cc1ccccc1F)NC(=O)[C@@H](NC(=O)CNC(=O)[C@H](CCC(=O)O)NC(=O)C(C)(C)NC(=O)[C@@H](N)Cc1ccc(O)cc1)[C@@H](C)O)[C@@H](C)O)[C@@H](C)CC)[C@@H](C)CC)C(=O)N[C@@H](CCCCNC(=O)CCOCCOCCOCCNC(=O)CC[C@H](NC(=O)CCCCCCCCCCCCC(=O)O)C(=O)O)C(=O)NCC(=O)NCC(=O)N1CCC[C@H]1C(=O)N[C@@H](CO)C(=O)N[C@@H](CO)C(=O)NCC(=O)N[C@@H](C)C(=O)N1CCC[C@H]1C(=O)N1CCC[C@H]1C(=O)N1CCC[C@H]1C(=O)N[C@@H](CO)C(N)=O [Example 458]
[1]; human GLP-1R, geometric mean (SEM, n), read-out: Binding Affinity Ki, nM (SEM, n) hGLP-1R
  Ki: 0.266 nM
hGIPR; HEK293, cAMP, 37° C., 0.1% bovine casein and 1.0% human serum albumin, read-out: hGIPR Emax, % ± SEM
  Emax: 93.1%
hGIPR; 37° C., 0.1% bovine casein (no human serum albumin), geometric mean, read-out: hGIPR EC50, nM (SEM, n)
  EC50: 0.0121 nM
hGLP-1R; HEK293, cAMP, 37° C., 0.1% bovine casein, read-out: hGLP-1R Emax, % ± SEM
  Emax: 111%
hGLP-1R; 37° C., 0.1% bovine casein (no human serum albumin), geometric mean, read-out: hGLP-1R EC50, nM (SEM, n)
  EC50: 0.179 nM
[2]; human GIPR, geometric mean (SEM, n), read-out: Binding Affinity Ki, nM (SEM, n) hGIPR
  Ki: 0.0232 nM
hGCGR; 0.1% bovine casein (no human serum albumin), geometric mean, read-out: hGCGR EC50, nM (SEM, n)
  EC50: > 9950 nM
hGCGR; 0.1% bovine casein and 1.0% human serum albumin, geometric mean (SEM, n), read-out: hGCGR EC50, nM (SEM, n)
  EC50: > 9950 nM

## CC[C@H](C)[C@H](NC(=O)[C@H](CC(C)C)NC(=O)[C@](C)(Cc1ccc(O)cc1)NC(=O)[C@H](CCCCNC(=O)CCOCCOCCOCCNC(=O)CC[C@H](NC(=O)CCCCCCCCCOc1ccc(C(=O)O)cc1)C(=O)O)NC(=O)[C@@H](NC(=O)[C@H](Cc1ccccc1)NC(=O)[C@H](CCCN)NC(=O)C(C)(C)NC(=O)[C@H](CCC(N)=O)NC(=O)[C@H](C)NC(=O)[C@H](CCC(N)=O)NC(=O)[C@H](CCCN)NC(=O)[C@H](CC(=O)O)NC(=O)[C@H](CC(C)C)NC(=O)[C@](C)(CC(C)C)NC(=O)[C@@H](NC(=O)C(C)(C)NC(=O)[C@H](Cc1ccncc1)NC(=O)[C@H](CC(=O)O)NC(=O)[C@H](CO)NC(=O)[C@@H](NC(=O)[C@](C)(Cc1ccccc1F)NC(=O)[C@@H](NC(=O)CNC(=O)[C@H](CCC(=O)O)NC(=O)C(C)(C)NC(=O)[C@@H](N)Cc1ccc(O)cc1)[C@@H](C)O)[C@@H](C)O)[C@@H](C)CC)[C@@H](C)CC)C(=O)N[C@@H](CCCCNC(=O)CCOCCOCCOCCNC(=O)CC[C@H](NC(=O)CCCCCCCCCOc1ccc(C(=O)O)cc1)C(=O)O)C(=O)NCC(=O)NCC(=O)N1CCC[C@H]1C(=O)N[C@@H](CO)C(=O)N[C@@H](CO)C(=O)NCC(=O)N[C@@H](C)C(=O)N1CCC[C@H]1C(=O)N1CCC[C@H]1C(=O)N1CCC[C@H]1C(=O)N[C@@H](CO)C(N)=O [Example 462]
[1]
  Ki: 0.125 nM
hGIPR; [3]
  EC50: 0.0128 nM
hGLP-1R; [4]
  Emax: 113%
hGLP-1R; [5]
  EC50: 0.189 nM
[2]
  Ki: 0.0102 nM
hGCGR; [6]
  EC50: > 9950 nM
hGCGR; [7]
  EC50: > 9950 nM

## CC[C@H](C)[C@H](NC(=O)[C@H](CC(C)C)NC(=O)[C@](C)(Cc1ccc(O)cc1)NC(=O)[C@H](CCCCNC(=O)COCCOCCNC(=O)CC[C@H](NC(=O)CCCCCCCCCOc1ccc(C(=O)O)cc1)C(=O)O)NC(=O)[C@@H](NC(=O)[C@H](Cc1ccccc1)NC(=O)[C@H](CCCN)NC(=O)C(C)(C)NC(=O)[C@H](CCC(N)=O)NC(=O)[C@H](C)NC(=O)[C@H](CCC(N)=O)NC(=O)[C@H](CCCN)NC(=O)[C@H](CC(=O)O)NC(=O)[C@H](CC(C)C)NC(=O)[C@](C)(CC(C)C)NC(=O)[C@@H](NC(=O)C(C)(C)NC(=O)[C@H](Cc1ccncc1)NC(=O)[C@H](CC(=O)O)NC(=O)[C@H](CO)NC(=O)[C@@H](NC(=O)[C@](C)(Cc1ccccc1F)NC(=O)[C@@H](NC(=O)CNC(=O)[C@H](CCC(=O)O)NC(=O)C(C)(C)NC(=O)[C@@H](N)Cc1ccc(O)cc1)[C@@H](C)O)[C@@H](C)O)[C@@H](C)CC)[C@@H](C)CC)C(=O)N[C@@H](CCCCNC(=O)COCCOCCNC(=O)CC[C@H](NC(=O)CCCCCCCCCOc1ccc(C(=O)O)cc1)C(=O)O)C(=O)NCC(=O)NCC(=O)N1CCC[C@H]1C(=O)N[C@@H](CO)C(=O)N[C@@H](CO)C(=O)NCC(=O)N[C@@H](C)C(=O)N1CCC[C@H]1C(=O)N1CCC[C@H]1C(=O)N1CCC[C@H]1C(=O)N[C@@H](CO)C(N)=O [Example 463]
[1]
  Ki: 0.143 nM
hGIPR; HEK293, read-out: hGIPR Emax, % ± SEM, cAMP, 37° C., 0.1% bovine casein, arithmetic mean
  Emax: 91.4%
hGIPR; [3]
  EC50: 0.0124 nM
hGIPR; hGIPR EC50, nM (SEM, n), 37° C., 0.1% bovine casein and 1.0% human serum albumin, geometric mean (SEM, n)
  EC50: 0.35 nM
hGLP-1R; [4]
  Emax: 111%
hGLP-1R; [5]
  EC50: 0.267 nM
[2]
  Ki: 0.0183 nM
hGCGR; [6]
  EC50: > 9950 nM
hGCGR; [7]
  EC50: > 9950 nM
